Test results: ChEMBL document CHEMBL1148194, “Dysinosins B-D, inhibitors of factor VIIa and thrombin from the Australian sponge Lamellodysidea chlorea” (J Nat Prod, 2004)

What was measured:
Coagulation factor VII = biological target: T1, Coagulation factor VII (Homo sapiens, UniProt P08709); experiment: Inhibition of factor 7a by spectrophotometric assay
T1 sequence (P08709 whole entry): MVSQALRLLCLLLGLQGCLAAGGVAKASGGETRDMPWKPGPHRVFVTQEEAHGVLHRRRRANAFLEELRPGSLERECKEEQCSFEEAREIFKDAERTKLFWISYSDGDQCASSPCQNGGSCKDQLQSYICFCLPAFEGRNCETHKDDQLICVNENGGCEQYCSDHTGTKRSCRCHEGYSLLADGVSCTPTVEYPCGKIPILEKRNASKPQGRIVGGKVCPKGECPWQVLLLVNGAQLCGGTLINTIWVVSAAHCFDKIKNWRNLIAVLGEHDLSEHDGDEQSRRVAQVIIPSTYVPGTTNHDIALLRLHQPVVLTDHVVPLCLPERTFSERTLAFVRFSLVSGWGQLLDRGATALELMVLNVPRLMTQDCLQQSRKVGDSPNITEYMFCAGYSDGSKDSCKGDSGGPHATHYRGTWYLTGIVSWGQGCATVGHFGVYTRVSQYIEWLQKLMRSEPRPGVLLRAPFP

Prothrombin = Prothrombin (Homo sapiens, UniProt P00734); experiment: Inhibition of thrombin by spectrophotometric assay

SMILES: CO[C@H](COS(=O)(=O)[O-])C(=O)N[C@H](CC(C)C)C(=O)N1[C@H](C(=O)NCCC2=CC[N+](=C(N)N)C2)C[C@@H]2C[C@H](O)[C@@H](O)C[C@@H]21 [DYSINOSIN A]
- Ki (Coagulation factor VII): 108 nM
- Ki (Prothrombin): 452 nM

SMILES: CO[C@H](COS(=O)(=O)[O-])C(=O)N[C@H](C(=O)N1[C@H](C(=O)NCCC2=CC[N+](=C(N)N)C2)C[C@@H]2C[C@H](O)[C@@H](O)C[C@@H]21)C(C)C [DYSINOSIN C]
- Ki (Coagulation factor VII): 124 nM
- Ki (Prothrombin): 550 nM

SMILES: CO[C@H](COS(=O)(=O)[O-])C(=O)N[C@H](C(=O)N1[C@H](C(=O)NCCC2=CC[N+](=C(N)N)C2)C[C@@H]2C[C@H](O)[C@@H](O[C@H]3O[C@H](CO)[C@@H](O)[C@H](O)[C@H]3O)C[C@@H]21)C(C)C [DYSINOSIN B]
- Ki (Coagulation factor VII): 90 nM
- Ki (Prothrombin): 170 nM

SMILES: CO[C@H](CO)C(=O)N[C@H](C(=O)N1[C@H](C(=O)NCCC2=CC[N+](=C(N)N)C2)C[C@@H]2C[C@H](O)[C@@H](O)C[C@@H]21)C(C)C [DYSINOSIN D]
- Ki (Coagulation factor VII): 1320 nM
- Ki (Prothrombin): > 5100 nM
